In patent US12629374B2, “Antimalarial agents” (Merck Sharp & Dohme LLC, priority 2020, dated 2026):
pEC50: −log10 of the molar value.

test system: ring stage parasites; assay: Parasite growth potency assay, 72 hours, LDH readout; type: cell-based; settings: 72 h, parasite growth measured by LDH assay after 72 hours at 37° C.; 0.7% rings, 2% haematocrit; read-out: EC50
Method in brief: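 Parasite growth was quantified by LDH assay after a −80 °C freeze-thaw. Before that, compound was incubated for 72 h at 37 °C under humidified gas with ring-stage cultures adjusted to 0.7% parasitemia and 2% haematocrit in serum- and albumax-supplemented RPMI-Hepes.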

Question: With `CCC1(CC)CC(=O)N([C@@H](c2cncc(F)c2)c2cccc(C(=O)N[C@H]3CC(C)(C)Oc4ccccc43)c2)C(=N)N1` [Example 99B, [1-[[3-[[(4S)-2,2-dimethylchroman-4-yl]carbamoyl]phenyl]-(5-fluoropyridin-1-ium-3-yl)methyl]-4,4-diethyl-6-oxo-hexahydropyrimidin-2-ylidene]ammonium; 2,2,2-trifluoroacetate] as the compound, how does the pEC50 read?
Answer: Its pEC50 is 8.70.

Question: With `CCC1(CC)CC(=O)N([C@H](c2cccnc2)c2cccc(C(=O)N[C@H]3CC(C)(C)Oc4ccccc43)c2)C(=N)N1` [Example 100A, [1-[[3-[[(4S)-2,2-dimethylchroman-4-yl]carbamoyl]phenyl]-pyridin-1-ium-3-yl-methyl]-4,4-diethyl-6-oxo-hexahydropyrimidin-2-ylidene]ammonium; 2,2,2-trifluoroacetate] as the compound, how does the pEC50 read?
Answer: The pEC50 was 9.40.

Question: `CCC1(CC)CC(=O)N([C@@H](c2cccnc2)c2cccc(C(=O)N[C@H]3CC(C)(C)Oc4ccccc43)c2)C(=N)N1` [Example 100B, [1-[[3-[[(4S)-2,2-dimethylchroman-4-yl]carbamoyl]phenyl]-pyridin-1-ium-3-yl-methyl]-4,4-diethyl-6-oxo-hexahydropyrimidin-2-ylidene]ammonium; 2,2,2-trifluoroacetate] was tested. Which pEC50 did it give?
Answer: The pEC50 was 8.32.

Question: How did the pEC50 turn out when `CC(C)[C@]1(C)CC(=O)N([C@H](c2cccnc2)c2cccc(C(=O)N[C@H]3CC(C)(C)Oc4ccccc43)c2)C(=N)N1` [Example 101A, [(4S)-1-[[3-[[(4S)-2,2-dimethylchroman-4-yl]carbamoyl]phenyl]-pyridin-1-ium-3-yl-methyl]-4-isopropyl-4-methyl-6-oxo-hexahydropyrimidin-2-ylidene]ammonium; 2,2,2-trifluoroacetate] was run?
Answer: The pEC50 was 9.52.

Question: How did the pEC50 turn out when `CC(C)[C@]1(C)CC(=O)N([C@@H](c2cccnc2)c2cccc(C(=O)N[C@H]3CC(C)(C)Oc4ccccc43)c2)C(=N)N1` [Example 101B, [(4S)-1-[[3-[[(4S)-2,2-dimethylchroman-4-yl]carbamoyl]phenyl]-pyridin-1-ium-3-yl-methyl]-4-isopropyl-4-methyl-6-oxo-hexahydropyrimidin-2-ylidene]ammonium; 2,2,2-trifluoroacetate] was run?
Answer: Its pEC50 is 8.82.

Question: `CCC[C@H](c1cccc(C(=O)N[C@@H]2c3ccccc3C[C@H]2O)c1)N1C(=N)NC(CC)(CC)CC1=O` [Example 102, [4,4-diethyl-1-[(1R)-1-[3-[[(1R,2R)-2-hydroxyindan-1-yl]carbamoyl]phenyl]butyl]-6-oxo-hexahydropyrimidin-2-ylidene]ammonium; 2,2,2-trifluoroacetate] was tested. Which pEC50 did it give?
Answer: Its pEC50 is 9.30.

Question: With `CCC1(CC)CC(=O)N([C@H](CCOC)c2cncc(C(=O)N[C@H]3CC(C)(C)Oc4ccccc43)c2)C(=N)N1` [Example 103, [1-[1-[5-I(4S)-2,2-dimethylchroman-4-yl]carbamoyl]pyridin-1-ium-3-yl]-3-methoxy-propyl]-4,4-diethyl-6-oxo-hexahydropyrimidin-2-ylidene]ammonium; 2,2,2-trifluoroacetate] as the compound, how does the pEC50 read?
Answer: The pEC50 was 9.30.

Question: With `COCC[C@H](c1cncc(C(=O)N[C@H]2CC(C)(C)Oc3ccccc32)c1)N1C(=N)N[C@](C)(C(C)C)CC1=O` [Example 104, [(4S)-1-[1-[5-[[(4S)-2,2-dimethylchroman-4-yl]carbamoyl]pyridin-1-ium-3-yl]-3-methoxy-propyl]-4-isopropyl-4-methyl-6-oxo-hexahydropyrimidin-2-ylidene]ammonium; 2,2,2-trifluoroacetate] as the compound, how does the pEC50 read?
Answer: Its pEC50 is 9.05.

Question: `CCC1(CC)CC(=O)N(C(c2cncc(C(=O)N[C@H]3CC(C)(C)Oc4ccccc43)c2)c2cncs2)C(=N)N1` (stereo partly drawn) [Example 105A, [1-[[5-[[(4S)-2,2-dimethylchroman-4-yl]carbamoyl]pyridin-1-ium-3-yl]-thiazol-5-yl-methyl]-4,4-diethyl-6-oxo-hexahydropyrimidin-2-ylidene]ammonium; 2,2,2-trifluoroacetate] was tested. Which pEC50 did it give?
Answer: The pEC50 was 9.30.

Question: How did the pEC50 turn out when `CCC1(CC)CC(=O)N([C@H](c2cncc(F)c2)c2cccc(C(=O)N[C@H]3CCOc4ccccc43)c2)C(=N)N1` [Example 106A, [1-[[3-[[(4S)-chroman-4-yl]carbamoyl]phenyl]-(5-fluoropyridin-1-ium-3-yl)methyl]-4,4-diethyl-6-oxo-hexahydropyrimidin-2-ylidene]ammonium; 2,2,2-trifluoroacetate] was run?
Answer: Its pEC50 is 9.30.

Question: How did the pEC50 turn out when `CCC1(CC)CC(=O)N([C@@H](c2cncc(F)c2)c2cccc(C(=O)N[C@H]3CCOc4ccccc43)c2)C(=N)N1` [Example 106B, [1-[[3-[[(4S)-chroman-4-yl]carbamoyl]phenyl]-(5-fluoropyridin-1-ium-3-yl)methyl]-4,4-diethyl-6-oxo-hexahydropyrimidin-2-ylidene]ammonium; 2,2,2-trifluoroacetate] was run?
Answer: The pEC50 was 8.51.

Question: How did the pEC50 turn out when `CCC1(CC)CC(=O)N([C@H](CCC#N)c2cccc(C(=O)N[C@H]3CC(C)(C)Oc4ccccc43)c2)C(=N)N1` [Example 107, [1-[3-cyano-1-[3-[[(4S)-2,2-dimethylchroman-4-yl]carbamoyl]phenyl]propyl]-4,4-diethyl-6-oxo-hexahydropyrimidin-2-ylidene]ammonium; 2,2,2-trifluoroacetate] was run?
Answer: Its pEC50 is 9.70.

Question: `C#CCC[C@H](c1cccc(C(=O)N[C@H]2CC(C)(C)Oc3ccccc32)c1)N1C(=N)N[C@](C)(C(C)C)CC1=O` [Example 108A, [(4S)-1-[1-[3-[[(4S)-2,2-dimethylchroman-4-yl]carbamoyl]phenyl]pent-4-ynyl]-4-isopropyl-4-methyl-6-oxo-hexahydropyrimidin-2-ylidene]ammonium; 2,2,2-trifluoroacetate] was tested. Which pEC50 did it give?
Answer: Its pEC50 is 9.40.

Question: How did the pEC50 turn out when `C#CCC[C@@H](c1cccc(C(=O)N[C@H]2CC(C)(C)Oc3ccccc32)c1)N1C(=N)N[C@](C)(C(C)C)CC1=O` [Example 108B, [(4S)-1-[1-[3-[[(4S)-2,2-dimethylchroman-4-yl]carbamoyl]phenyl]pent-4-ynyl]-4-isopropyl-4-methyl-6-oxo-hexahydropyrimidin-2-ylidene]ammonium; 2,2,2-trifluoroacetate] was run?
Answer: Its pEC50 is 7.63.

Question: How did the pEC50 turn out when `CCC1(CC)CC(=O)N([C@H](c2cccnc2)c2cccc(C(=O)N[C@@H]3c4ccccc4C[C@H]3O)c2)C(=N)N1` [Example 109A, [4,4-diethyl-1-[[3-[[(1R,2R)-2-hydroxyindan-1-yl]carbamoyl]phenyl]-pyridin-1-ium-3-yl-methyl]-6-oxo-hexahydropyrimidin-2-ylidene]ammonium; 2,2,2-trifluoroacetate] was run?
Answer: Its pEC50 is 8.80.

Question: `CCC1(CC)CC(=O)N([C@@H](c2cccnc2)c2cccc(C(=O)N[C@@H]3c4ccccc4C[C@H]3O)c2)C(=N)N1` [Example 109B, [4,4-diethyl-1-[[3-[[(1R,2R)-2-hydroxyindan-1-yl]carbamoyl]phenyl]-pyridin-1-ium-3-yl-methyl]-6-oxo-hexahydropyrimidin-2-ylidene]ammonium; 2,2,2-trifluoroacetate] was tested. Which pEC50 did it give?
Answer: Its pEC50 is 7.64.

Question: How did the pEC50 turn out when `CCC1(CC)CC(=O)N([C@H](c2cncnc2)c2cccc(C(=O)N[C@@H]3c4ccccc4C[C@H]3O)c2)C(=N)N1` [Example 110B, 3-[(4,4-diethyl-2-imino-6-oxo-hexahydropyrimidin-1-yl)-pyrimidin-5-yl-methyl]-N-[(1R,2R)-2-hydroxyindan-1-yl]benzamide] was run?
Answer: Its pEC50 is 8.08.

Question: How did the pEC50 turn out when `CC#CCC[C@H](c1cncc(C(=O)N[C@H]2CC(C)(C)Oc3ccccc32)c1)N1C(=N)NC(CC)(CC)CC1=O` [Example 111, [1-[1-[5-[[(4S)-2,2-dimethylchroman-4-yl]carbamoyl]pyridin-1-ium-3-yl]hex-4-ynyl]-4,4-diethyl-6-oxo-hexahydropyrimidin-2-ylidene]ammonium; 2,2,2-trifluoroacetate] was run?
Answer: Its pEC50 is 9.40.

Question: With `CCC1(CC)CC(=O)N([C@H](COCCOC)c2cccc(C(=O)N[C@H]3CC(C)(C)Oc4ccccc43)c2)C(=N)N1` [Example 112A, [1-[1-[3-[[(4S)-2,2-dimethylchroman-4-6-oxo-hexahydropyrimidin-2-ylidene]ammonium; 2,2,2-trifluoroacetate] as the compound, how does the pEC50 read?
Answer: The pEC50 was 9.52.

Question: How did the pEC50 turn out when `CCC1(CC)CC(=O)N(Cc2cccc(C(=O)NC3(C)CCOc4ccccc43)c2)C(=N)N1` (stereo not drawn) [Example 113, 3-[(4,4-diethyl-2-imino-6-oxo-hexahydropyrimidin-1-yl)methyl]-N-(4-methylchroman-4-yl)benzamide] was run?
Answer: Its pEC50 is 7.02.

Question: How did the pEC50 turn out when `C#CCC[C@H](c1cncc(C(=O)N[C@H]2CC(C)(C)Oc3ccccc32)c1)N1C(=N)N[C@](C)(C(C)C)CC1=O` [Example 114A, [(4S)-1-[1-[5-[[(4S)-2,2-dimethylchroman-4-yl]carbamoyl]pyridin-1-ium-3-yl]pent-4-ynyl]-4-isopropyl-4-methyl-6-oxo-hexahydropyrimidin-2-ylidene]ammonium; 2,2,2-trifluoroacetate] was run?
Answer: Its pEC50 is 9.52.

Question: `C#CCC[C@@H](c1cncc(C(=O)N[C@H]2CC(C)(C)Oc3ccccc32)c1)N1C(=N)N[C@](C)(C(C)C)CC1=O` [Example 114B, [(4S)-1-[1-[5-[[(4S)-2,2-dimethylchroman-4-yl]carbamoyl]pyridin-1-ium-3-yl]pent-4-ynyl]-4-isopropyl-4-methyl-6-oxo-hexahydropyrimidin-2-ylidene]ammonium; 2,2,2-trifluoroacetate] was tested. Which pEC50 did it give?
Answer: The pEC50 was 7.74.

same assay, conditions: parasite growth measured by LDH assay after 72 hours at 37° C.; 0.7% rings, 2% haematocrit; read-out: EC50

Question: `CCC1(CC)CC(=O)N(C(c2cncnc2)c2cccc(C(=O)N[C@@H]3c4ccccc4C[C@H]3O)c2)C(=N)N1` (stereo partly drawn) [Example 110A, 3-[(4,4,-diethyl-2-imino-6-oxo-hexahydropyrimidin-1-yl)-pyrimidin-5-yl-methyl]-N-[(1R,2R)-2-hydroxyindan-1-yl]benzamide] was tested. Which pEC50 did it give?
Answer: Its pEC50 is 8.40.

same assay, conditions: parasite growth measured by LDH assay after 72 hours at 37° C.; 0.7% rings, 2% haematocrit; trifluoroacetate; read-out: EC50

Question: `CCC1(CC)CC(=O)N(C(c2cncc(C(=O)N[C@H]3CC(C)(C)Oc4ccccc43)c2)c2cncs2)C(=N)N1` (stereo partly drawn) [Example 105B, [1-[[5-[[(4S)-2,2-dimethylchroman-4-yl]carbamoyl]pyridin-1-ium-3-yl]-thiazol-5-yl-methyl]-4,4-diethyl-6-oxo-hexahydropyrimidin-2-ylidene]ammonium; 2,2,2-trifluoroacetate] was tested. Which pEC50 did it give?
Answer: The pEC50 was 9.22.
